{
  "source": "paper PMC7094550",
  "about": "(Experimental Parasitology, 2017)",
  "molecular_target": "T1, Leishmania donovani HMG-CoA reductase (LdHMGR) (Leishmania donovani, UniProt A0A3S7X3U0)",
  "T1 sequence (A0A3S7X3U0 1-434)": "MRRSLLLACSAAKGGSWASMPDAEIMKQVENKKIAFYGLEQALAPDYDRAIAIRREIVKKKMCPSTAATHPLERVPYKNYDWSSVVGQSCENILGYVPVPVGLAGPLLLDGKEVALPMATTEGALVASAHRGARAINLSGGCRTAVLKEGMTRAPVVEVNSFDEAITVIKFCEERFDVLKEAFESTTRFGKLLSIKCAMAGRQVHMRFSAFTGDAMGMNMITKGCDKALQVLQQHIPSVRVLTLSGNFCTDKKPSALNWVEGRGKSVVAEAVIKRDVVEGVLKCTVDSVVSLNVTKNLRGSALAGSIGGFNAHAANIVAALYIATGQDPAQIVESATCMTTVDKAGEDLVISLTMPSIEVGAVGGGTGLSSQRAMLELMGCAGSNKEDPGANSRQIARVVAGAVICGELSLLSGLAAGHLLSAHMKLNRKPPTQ",
  "test": "NADPH oxidation assay at […] nm with purified recombinant enzyme",
  "format": "biochemical",
  "data": [
    {"smiles": "CC(C)c1c(C(=O)Nc2ccccc2)c(-c2ccccc2)c(-c2ccc(F)cc2)n1CC[C@@H](O)C[C@@H](O)CC(=O)O", "note": "[Atorvastatin]", "values": [
      {"measurement": "IC50", "value": 300, "unit": "nM"}
    ]}
  ]
}
